The NIST ThermoML archive (doi:10.1021/je900091b)

Experiment: xn = mol fraction of the nth substance listed
Details: Liquid

C=C(C)C(=O)OC [methyl methacrylate] + CCCCn1cc[n+](C)c1.F[P-](F)(F)(F)(F)F
Details	mass density [kg/m3]	viscosity [mPa·s]
313.15 K, x1 = 0.5993	1183.05	7.55
313.15 K, x1 = 0.7009	1135.06	4.379
313.15 K, x1 = 0.8003	1078.32	2.175
313.15 K, x1 = 0.9007	1009.49	1.092
313.15 K, x1 = 1	920.185	0.4719
318.15 K, x1 = 0.0986	1331.15	62.99
318.15 K, x1 = 0.2094	1305.41	38.91
318.15 K, x1 = 0.3073	1279.94	25.49
318.15 K, x1 = 0.4053	1251.13	16.71
318.15 K, x1 = 0.4977	1218.64	10.9
318.15 K, x1 = 0.5993	1178.39	6.745
318.15 K, x1 = 0.7009	1130.19	3.99
318.15 K, x1 = 0.8003	1073.17	2.007
318.15 K, x1 = 0.9007	1004	1.026
318.15 K, x1 = 1	914.317	0.4497
323.15 K, x1 = 0.0986	1327	51.32
323.15 K, x1 = 0.2094	1301.17	32.45
323.15 K, x1 = 0.3073	1275.58	21.7
323.15 K, x1 = 0.4053	1246.74	14.51
323.15 K, x1 = 0.4977	1214.13	9.64
323.15 K, x1 = 0.5993	1173.73	6.066
323.15 K, x1 = 0.7009	1125.33	3.653
323.15 K, x1 = 0.8003	1068.01	1.868
323.15 K, x1 = 0.9007	998.489	0.9687
323.15 K, x1 = 1	908.405	0.4294
328.15 K, x1 = 0.0986	1322.85	42.36
328.15 K, x1 = 0.2094	1296.92	27.39
328.15 K, x1 = 0.3073	1271.14	18.69
328.15 K, x1 = 0.4053	1242.36	12.71
328.15 K, x1 = 0.4977	1209.65	8.585
328.15 K, x1 = 0.5993	1169.08	5.497
328.15 K, x1 = 0.7009	1120.46	3.362
328.15 K, x1 = 0.8003	1062.85	1.743
328.15 K, x1 = 0.9007	992.98	0.9201
328.15 K, x1 = 1	902.468	0.41
333.15 K, x1 = 0.0986	1318.71	35.43
333.15 K, x1 = 0.2094	1292.66	23.38
333.15 K, x1 = 0.3073	1267.36	16.24
333.15 K, x1 = 0.4053	1237.99	11.22
333.15 K, x1 = 0.4977	1205.17	7.691
333.15 K, x1 = 0.5993	1164.44	4.991
333.15 K, x1 = 0.7009	1115.59	3.111
333.15 K, x1 = 0.8003	1057.67	1.629
333.15 K, x1 = 0.9007	987.485	0.915
333.15 K, x1 = 1	896.479	0.3938
343.15 K, x1 = 0.0986	1310.46	25.61
343.15 K, x1 = 0.2094	1284.51	17.56
343.15 K, x1 = 0.3073	1259.32	12.57
343.15 K, x1 = 0.4053	1229.29	8.922
343.15 K, x1 = 0.4977	1196.23	6.278
343.15 K, x1 = 0.5993	1155.17	4.187
343.15 K, x1 = 0.7009	1105.84	2.708
343.15 K, x1 = 0.8003	1047.29	1.431
343.15 K, x1 = 0.9007	976.413	0.8545
343.15 K, x1 = 1	884.418	0.3636
353.15 K, x1 = 0.0986	1302.23	19.25
353.15 K, x1 = 0.2094	1275.98	13.65
353.15 K, x1 = 0.3073	1250.71	10.01
353.15 K, x1 = 0.4053	1220.62	7.259
353.15 K, x1 = 0.4977	1187.32	5.224
353.15 K, x1 = 0.5993	1145.91	3.579
353.15 K, x1 = 0.7009	1096.08	2.415
353.15 K, x1 = 0.8003	1036.87	1.272
353.15 K, x1 = 0.9007	965.13	0.781
353.15 K, x1 = 1	872.129	0.3398
